Measured values as given in patent US20160015701A1, “Methods of Treating Acute Kidney Injury” (ABBIVE INC., priority 2013, published 2016).
Like-named read-outs stand apart in the source and are kept apart here.

Legend:
[1] = system: unilateral ischemic renal injury; test: unilateral ischemia/reperfusion (I/R) injury protocol, renal weight two weeks post ischemia; assay type: in vivo, CD-1 mice
Experimental: (§1) All experiments were performed using male 30-45 gram CD-1 mice, obtained from Charles River Laboratories, Wilmington, Mass. They were housed under routine vivarium conditions with free food and water access. Surgeries were conducted under deep pentobarbital anesthesia (40-50 mg/Kg IP). Post surgical analgesia was provided with buprenorphine (0.1 mg/Kg IP) at the completion of surgery. All procedures were approved by the institution's IACUC, in accordance with NIH guidelines.
In this example, ET-1 and ETA/ETB receptor expression were quantified following ischemic renal injury, and ET-1 gene chromatin remodeling and RNA polymerase II (Pol II) binding were evaluated. Ten mice were subjected to a midline laparotomy, and the left renal pedicles were exposed and occluded ×30 min using atraumatic microvascular clamps. Uniform ischemia was confirmed by the development of total kidney cyanosis (indicating hypoxia). Body temperature was monitored with an intra-abdominal thermometer and maintained at 37° C. with an external heating source. At the completion of the ischemic period, the vascular clamp was removed, and uniform reperfusion was confirmed by loss of kidney cyanosis. The abdominal incision was then sutured in two layers using 3-0 chromic suture. The mice were then allowed to recover from anesthesia. Ten additional mice, subjected to the same surgical procedure, but not to renal pedicle occlusion, served as sham-operated controls.
This example studied whether atrasentan treatment, during pre- and post-ischemic period, confers renal protection. Eighteen mice were subjected to a unilateral ischemia/reperfusion (I/R) protocol as described in Example 1. […] Atrasentan was administered in the drinking water (25 μg/mL; designed to equate with a dose of ˜5 mg/Kg/day). Atrasentan dosing was started one day before surgery, and continued throughout the remainder of the experiment. Fresh atrasentan was provided ˜2-3× per week for two weeks. The remaining nine mice received only free food and water access, serving as controls.
The degree of post-ischemic loss of renal mass was assessed by comparing the weights of kidneys from sham operated mice, control post-ischemic mice, and post ischemic mice that had received atrasentan treatment. Finally, frontal sections of post-ischemic kidneys were taken from five control mice and five atrasentan-treated mice, fixed in 10% buffered formalin, and used for subsequent histochemical analyses.
This example studies whether atrasentan treatment, restricted to the post-ischemic period, confers renal protection. This experiment was designed to help resolve the issue of when atrasentan was inducing its protective effect. To this end, the same protocol described in Example 2 was repeated, but atrasentan administration was commenced 24 hours after the induction of ischemic damage). At the end of two weeks, the mice were re-anesthetized and the left and right kidneys were weighed. The degree of post ischemic renal weight reduction (the primary endpoint of the above described experiment) was determined. […]
This example studies the potential effects of atrasentan on renal growth independent of ischemic injury. To ascertain whether atrasentan treatment might impact renal growth or size independent of an effect on renal ischemia/post ischemic injury, renal weights of the contralateral (non ischemic) kidneys from the Example 2 were assessed and compared to ischemic kidneys with and without treatment with atrasentan. […]

[2] = molecular target: ETB receptor; details: read-out: K1 of ET-1/ETB binding affinity; cited from earlier work
[3] = system: bilateral ischemic renal injury; test: bilateral ischemic renal injury, severity at 24 hours post ischemia; assay type: in vivo, CD-1 mice; details: 22.5 min or 25 min bilateral ischemia
Experimental: as §1
This example studies whether atrasentan pre-treatment protects against the acute ischemic injury phase. More particularly, the possibility that atrasentan might mitigate the acute injury phase, and thus, cause a subsequent preservation of renal mass, was explored by subjecting mice to either 22.5 minutes or 25 minutes of bilateral ischemic renal injury in the presence or absence of atrasentan pre-treatment for 24 hours before and for 24 hours after the induction of renal ischemia. […]
The severity of injury was assessed at 24 hours post ischemia by BUN and plasma creatinine concentrations. […] As a second marker of renal injury, renal cortical NGAL mRNA levels were also assessed. Measurement of NGAL mRNA represents a more sensitive biomarker of kidney injury than BUN and Plasma Creatinine measured in FIG. 8 and was measured to investigate the effect of atrasentan on the induction phase of ischemic injury.

[4] = system: post ischemic kidneys; test: renal histology (H and E injury score, KI-67 staining) of two week post ischemic kidneys; assay type: in vivo, CD-1 mice; details: pre+post atrasentan
Experimental: Calculations and Statistics: All values are presented as means±1 SEM. Statistical comparisons were performed by unpaired Student's t test. The mRNA data were generated by competitive RT-PCR, with the results for any given message being expressed as a ratio to the simultaneously determined GAPDH product, used as a housekeeping gene. ChIP data, generated with real time PCR (qPCR) are presented as ng/mg total applied chromatin. The severity of histologic injury, as determined by studying H and E stained kidney sections, was assessed by blinded scoring of slides of 2 week post ischemic kidneys from 5 Atrasentan treated (24 hrs pre-ischemia, and 2 weeks post-ischemia) mice, and from 5 non Atrasentan treated post ischemic controls. […]
This example examined renal histology on kidneys from five control mice and five atrasentan-treated mice from Example 2. […] In addition, renal tubular cell proliferation was assessed by immunohistochemical staining for KI-67, a nuclear protein marker of all active cell cycle phases (G1, S, G2, mitosis; but not Go). (Scholzen T, et al., The Ki-67 protein: from the known and the unknown. J Cell Physiol. 182: 311-322, 2000.) The percent of KI-67 cells was determined on whole kidney sections, captured with ScanScope AT (Aperio, Vista, Calif.), and then analyzed with Nuclear Algorithm Spectrum software (version 11.1.1.764; Aperio).

[5] = system: proximal tubule (HK-2) cells
Experimental: After eighteen hours of incubation, lethal cell injury was assessed by % LDH release.

Row | SMILES | effect on renal parameters measured ([1]; BQ-788 administered both pre- and post-ischemia) | post ischemic kidney weight ([1]; BQ-788 subcutaneously each day from 1 day before surgery, two weeks post ischemia, control ischemia 0.23 grams) [grams] | Ki [2] [nM] | post ischemic loss of renal mass (renal weight) ([1]; atrasentan commenced 24 hours after induction of ischemic damage, two weeks) | post ischemic kidney weight (renal mass) ([1]; atrasentan in drinking water ~5 mg/Kg/day, started one day before 30 min unilateral ischemia and continued two weeks post ischemia, vs normal kidneys) | contralateral (non ischemic) kidney weight, hypertrophic response ([1]; pre+post atrasentan, two weeks, drug vs. no-drug groups) | severity of AKI by BUN and plasma creatinine concentrations ([3]; atrasentan 24 hours before and 24 hours after, assessed 24 hours post ischemia) | renal cortical NGAL mRNA levels ([3]; atrasentan 24 hours before and after, 24 hours post ischemia) | % KI-67 nuclear positivity ([4]; two week post ischemic kidney, control ischemia 11.4±0.8%, normal kidneys 2.4±0.6%) [%] | histologic injury score (semiquantitative 1+ to 4+, least to most severe) ([4]; two weeks post ischemia, control ischemia 3.4±0.3, p<0.01, mean±SEM) | LDH release ([5]; CAD (antimycin A/Ca ionophore/2-deoxyglucose) + 5 μg atrasentan, 18 hours, CAD alone 22.8±0.2%) [%] | LDH release ([5]; human, 18 h, 5 μg/mL) [%]
1 | CCCC[C@@H](NC(=O)[C@@H](Cc1cn(C(=O)OC)c2ccccc12)NC(=O)[C@H](CC(C)(C)C)NC(=O)N1[C@H](C)CCC[C@@H]1C)C(=O)[O-].[Na+] [BQ-788, N-cis-2,6-dimethylpiperidinocarbonyl-L-gamma-methylleucyl-D-1-methoxycarbonyltryptophanyl-D-norleucine] | no effect on any of the renal parameters measured | 0.24 | 100 |  |  |  |  |  |  |  |  | 
2 | CCCCN(CCCC)C(=O)CN1C[C@H](c2ccc3c(c2)OCO3)[C@@H](C(=O)O)[C@@H]1c1ccc(OC)cc1 [atrasentan, (2R,3R,4S)-4-(1,3-benzodioxol-5-yl)-1-[2-(dibutylamino)-2-oxoethyl]-2-(4-methoxyphenyl)pyrrolidine-3-carboxylic acid] |  |  |  | completely blocked this loss of renal mass | did not significantly differ from that of normal kidneys | no effect on this hypertrophic response | failed to mitigate the severity of AKI | in neither instance did atrasentan decrease these NGAL mRNA increases | 10.8±1.2 | 1.7±0.4 | 23.2±0.3 | 9.0±0.1
